A value given as a limit tells only on which side of the number the result lay.

The first experiment deals with MV-4-11 cells. Kind of experiment: Cell Viability Assay in MV-4-11 Cells. The format is cell-based. The conditions noted are these: Homo sapiens, MV4-11, 72 h. Here is the method:
MV-4-11 cells (ATCC) were seeded into sterile 96-well flat clear bottom white polystyrene TC-treated microplates (Corning) at 7,000 cells/well in 150 μL complete growth medium (Iscove's Modified Dulbecco's Medium (IMDM) (Gibco), 10% Heat Inactivated Fetal Bovine Serum (HyClone), 1% Penicillin-Streptomycin-L-Glutamine (HyClone), 1% GlutaMAX (Gibco)). […] After 72 h incubation, plates were removed from incubators and allowed to equilibrate to room temperature (˜10 min) before adding 50 μL per well Cell-Titer Glo reagent (Promega) using a WellJet (Integra Biosciences) dispenser. Plates were then incubated at room temperature for 2-20 min prior to measurement of luminescence on an Envision (Perkin Elmer) plate reader. Data were normalized to DMSO (100% viability) and analyzed using a non-linear four-parameter curve fit.
Take `Cc1csc(-c2ccc(C(=O)N(c3nccc4cccc(C)c34)[C@@H]3CCCNC3)c(F)c2)n1` [Example 315, (R)-2-fluoro-N-(8-methylisoquinolin-1-yl)-4-(4-methylthiazol-2-yl)-N-(piperidin-3-yl)benzamide]: half-maximal inhibition (IC50) was put at 240 nM.

The experiment is the same for the next values; noted with them: Homo sapiens, MV4-11, 72 h, MV-4-11 cells, 72 h, Cell-Titer Glo; read-out: IC50.
Turning to `Cc1cccc2ccnc(N(C(=O)c3ccc(Nc4nccc(N5CC[C@H](O)C5)n4)cc3F)[C@@H]3CCCNC3)c12` [Example 625, 2-fluoro-4-((4-((S)-3-hydroxypyrrolidin-1-yl)pyrimidin-2-yl)amino)-N-(8-methylisoquinolin-1-yl)-N—((R)-piperidin-3-yl)benzamide], the IC50 (in general, the midpoint of a concentration-inhibition curve) was 20 nM.

On to `COCc1nnc(-c2ccc(C(=O)N(c3nccc4scc(C)c34)[C@@H]3CCCNC3)cc2)s1` [Example 875, 4-[5-(methoxymethyl)-1,3,4-thiadiazol-2-yl]-N-(3-methylthieno[3,2-c]pyridin-4-yl)-N-[(3R)-3-piperidyl]benzamide], for which the IC50 amounted to 86 nM.

Regarding `Cc1cccc2ccnc(N(C(=O)c3ccc(N(C)c4ncccn4)cc3F)[C@@H]3CCCNC3)c12` [Example 928, (R)-2-fluoro-4-(methyl(pyrimidin-2-yl)amino)-N-(8-methylisoquinolin-1-yl)-N-(piperidin-3-yl)benzamide], the IC50 was 250 nM.

Take `Cn1ccc2ccnc(N(C(=O)c3ccc(-c4cnn5cccnc45)cc3)[C@@H]3CCCNC3)c21` [Example 303, (R)—N-(1-methyl-1H-pyrrolo[2,3-c]pyridin-7-yl)-N-(piperidin-3-yl)-4-(pyrazolo[1,5-a]pyrimidin-3-yl)benzamide]: the IC50 worked out at 450 nM.

For `Cc1cc(Cl)cc2ccnc(N(C(=O)c3ccc(-c4cn(C)nn4)cc3Cl)[C@@H]3CCCNC3)c12` [Example 816, (R)-2-chloro-N-(6-chloro-8-methylisoquinolin-1-yl)-4-(1-methyl-1H-1,2,3-triazol-4-yl)-N-(piperidin-3-yl)benzamide], the IC50 stood at 140 nM.

As to `CCc1nnc(-c2ccc(C(=O)N(c3nccc4cc(C)cc(C)c34)[C@@H]3CCCNC3)nc2)s1` [Example 671, (R)—N-(6,8-dimethylisoquinolin-1-yl)-5-(5-ethyl-1,3,4-thiadiazol-2-yl)-N-(piperidin-3-yl)picolinamide], the IC50 was 130 nM.

`Cc1cc(-c2cccnc2)cc2ccnc(N(C(=O)c3ccc(-n4nnc5cccnc54)cc3F)[C@@H]3CCCNC3)c12` [Example 421, (R)-4-(3H-[1,2,3]triazolo[4,5-b]pyridin-3-yl)-2-fluoro-N-(8-methyl-6-(pyridin-3-yl)isoquinolin-1-yl)-N-(piperidin-3-yl)benzamide]: the IC50 stood at 16 nM.

With `Cc1cccc2ccnc(N(C(=O)c3ccc(Nc4nccc(NCc5ccncc5)n4)cc3F)[C@@H]3CCCNC3)c12` [Example 697, (R)-2-fluoro-N-(8-methylisoquinolin-1-yl)-N-(piperidin-3-yl)-4-((4-((pyridin-4-ylmethyl)amino)pyrimidin-2-yl)amino)benzamide], the half-maximal inhibitory concentration (IC50) came out at 200 nM.

For the compound `Cn1cc(-c2ccc(C(=O)N(c3nccc4sc(C#CC(C)(C)O)cc34)[C@@H]3CCCNC3)c(F)c2)nn1` [Example 551, 2-fluoro-N-[2-(3-hydroxy-3-methyl-but-1-ynyl)thieno[3,2-c]pyridin-4-yl]-4-(1-methyltriazol-4-yl)-N-[(3R)-3-piperidyl]benzamide], the IC50 stood at 520 nM.

For the compound `Nc1noc2ccc(-c3cc4c(N(C(=O)c5ccc(-n6nnc7cccnc76)cc5F)[C@@H]5CCCNC5)nccc4s3)cc12` [Example 420, N-[2-(3-amino-1,2-benzoxazol-5-yl)thieno[3,2-c]pyridin-4-yl]-2-fluoro-N-[(3R)-3-piperidyl]-4-(triazolo[4,5-b]pyridin-3-yl)benzamide], the IC50 is 330 nM.

`COCCCc1nnc(-c2ccc(C(=O)N(c3nccc4cc(C)cc(C)c34)[C@@H]3CCCNC3)cn2)s1` [Example 904, N-(6,8-dimethyl-1-isoquinolyl)-6-[5-(3-methoxypropyl)-1,3,4-thiadiazol-2-yl]-N-[(3R)-3-piperidyl]pyridine-3-carboxamide]: the IC50 came out at 75 nM.

For `Cc1nnc(-c2ccc(C(=O)N(c3nccc4cccc(C)c34)[C@@H]3CCCNC3)cn2)s1` [Example 622, (R)-6-(5-methyl-1,3,4-thiadiazol-2-yl)-N-(8-methylisoquinolin-1-yl)-N-(piperidin-3-yl)nicotinamide], the IC50 is 170 nM.

In the case of `O=C(c1ccc(-n2nnc3cccnc32)cc1F)N(c1nccc2sc(-c3nccs3)cc12)[C@@H]1CCCNC1` [Example 417, 2-fluoro-N-[(3R)-3-piperidyl]-N-(2-thiazol-2-ylthieno[3,2-c]pyridin-4-yl)-4-(triazolo[4,5-b]pyridin-3-yl)benzamide], the IC50 is 390 nM.

As for `O=C(O)CCc1ccc2c(N(C(=O)c3ccc(-n4nnc5cccnc54)cc3F)[C@@H]3CCCNC3)nccc2c1` [Example 407], the IC50 was over 10000 nM.

On to `Cc1csc2ccnc(N(C(=O)c3ccc(-c4nnc(CCC#N)s4)cc3F)[C@@H]3CCCNC3)c12` [Example 883, 4-[5-(2-cyanoethyl)-1,3,4-thiadiazol-2-yl]-2-fluoro-N-(3-methylthieno[3,2-c]pyridin-4-yl)-N-[(3R)-3-piperidyl]benzamide], for which the IC50 amounted to 160 nM.

`COc1ccc2c(N(C(=O)c3ccc(-c4nnc(C)s4)cc3)[C@@H]3CCCNC3)nccc2c1F` [Example 868, N-(5-fluoro-6-methoxy-1-isoquinolyl)-4-(5-methyl-1,3,4-thiadiazol-2-yl)-N-[(3R)-3-piperidyl]benzamide]: the IC50 worked out at 760 nM.

Turning to `Cc1cc(C2CCN(C(=O)N(c3nccc4cc(F)cc(C)c34)[C@@H]3CCCNC3)CC2)on1` [Example 658, (R)—N-(6-fluoro-8-methylisoquinolin-1-yl)-4-(3-methylisoxazol-5-yl)-N-(piperidin-3-yl)piperidine-1-carboxamide], the IC50 is 610 nM.

As for `Cc1nc(-c2ccc3c(N(C(=O)c4ccc(-n5nnc6cccnc65)cc4F)[C@@H]4CCCNC4)nccc3c2)cs1` [Example 575, (R)-4-(3H-[1,2,3]triazolo[4,5-b]pyridin-3-yl)-2-fluoro-N-(6-(2-methylthiazol-4-yl)isoquinolin-1-yl)-N-(piperidin-3-yl)benzamide], the IC50 amounted to 150 nM.

Turning to `CNC(=O)C#Cc1cc2c(N(C(=O)c3ccc(-c4cn(C)nn4)cc3F)[C@@H]3CCCNC3)nccc2s1` [Example 550, 2-fluoro-N-[2-[3-(methylamino)-3-oxo-prop-1-ynyl]thieno[3,2-c]pyridin-4-yl]-4-(1-methyltriazol-4-yl)-N-[(3R)-3-piperidyl] benzamide], the IC50 is over 6000 nM.

Regarding `COCc1c(-c2ccc(C(=O)N(c3nccc4scc(C)c34)[C@@H]3CCCNC3)c(F)c2)nnn1C` [Example 851, 2-fluoro-4-[5-(methoxymethyl)-1-methyl-triazol-4-yl]-N-(3-methylthieno[3,2-c]pyridin-4-yl)-N-[(3R)-3-piperidyl]benzamide], the IC50 is 61 nM.

In the case of `Cc1cccc2ccnc(N(C(=O)N3CCc4[nH]nc(-c5ccccc5)c4C3)[C@@H]3CCCNC3)c12` [Example 343, (R)—N-(8-methylisoquinolin-1-yl)-3-phenyl-N-(piperidin-3-yl)-1,4,6,7-tetrahydro-5H-pyrazolo[4,3-c]pyridine-5-carboxamide], the IC50 is 1400 nM.

`Cc1nnc(-c2ccc(C(=O)N(c3nccc4cc(F)cc(C)c34)[C@@H]3CCCNC3)nc2)s1` [Example 784, (R)—N-(6-fluoro-8-methylisoquinolin-1-yl)-5-(5-methyl-1,3,4-thiadiazol-2-yl)-N-(piperidin-3-yl)picolinamide]: the half-inhibitory concentration (IC50) was determined as 290 nM.

As to `Cc1nnc(-c2ccc(C(=O)N(c3nccc4cc(Cl)cc(C)c34)[C@@H]3CCCNC3)nc2)s1` [Example 801, (R)—N-(6-chloro-8-methylisoquinolin-1-yl)-5-(5-methyl-1,3,4-thiadiazol-2-yl)-N-(piperidin-3-yl)picolinamide], the IC50 was found to be 140 nM.

Regarding `COc1ccc2c(N(C(=O)c3ccc(-c4nnc(C)s4)cn3)[C@@H]3CCCNC3)nccc2c1F` [Example 867, N-(5-fluoro-6-methoxy-1-isoquinolyl)-5-(5-methyl-1,3,4-thiadiazol-2-yl)-N-[(3R)-3-piperidyl]pyridine-2-carboxamide], the IC50 is 970 nM.

As for `COCCc1nnc(-c2ccc(C(=O)N(c3nccc4scc(C)c34)[C@@H]3CCCNC3)cn2)s1` [Example 913, 6-[5-(2-methoxyethyl)-1,3,4-thiadiazol-2-yl]-N-(3-methylthieno[3,2-c]pyridin-4-yl)-N-[(3R)-3-piperidyl]pyridine-3-carboxamide], the IC50 came to 130 nM.

Regarding `CCCNc1ccnc(Nc2ccc(C(=O)N(c3nccc4cccc(C)c34)[C@@H]3CCCNC3)c(F)c2)n1` [Example 746, (R)-2-fluoro-N-(8-methylisoquinolin-1-yl)-N-(piperidin-3-yl)-4-((4-(propylamino)pyrimidin-2-yl)amino)benzamide], the IC50 worked out at 33 nM.

For `Cc1cc(-c2cn[nH]c2)cc2ccnc(N(C(=O)c3ccc(-n4nnc5cccnc54)cc3F)[C@@H]3CCCNC3)c12` [Example 422, (R)-4-(3H-[1,2,3]triazolo[4,5-b]pyridin-3-yl)-2-fluoro-N-(8-methyl-6-(1H-pyrazol-4-yl)isoquinolin-1-yl)-N-(piperidin-3-yl)benzamide], the IC50 worked out at 6.6 nM.

Regarding `Cc1cc(F)cc2ccnc(N(C(=O)c3ccc(-n4nnc5cccnc54)cc3F)[C@@H]3CCCNC3)c12` [Example 583, (R)-4-(3H-[1,2,3]triazolo[4,5-b]pyridin-3-yl)-2-fluoro-N-(6-fluoro-8-methylisoquinolin-1-yl)-N-(piperidin-3-yl)benzamide], the IC50 worked out at 4.2 nM.

For the origin of these results see US20240400555A1 (Initial Therapeutics, Inc., priority 2023, published 2024).
